Assay results published in patent US20080064681A1, “Therapeutic agent for treating glaucoma” (priority 2006, published 2008).
Where a name gives a salt, the structure may show the parent alone.

How the values were obtained:
[1] = biological target: T1, recombinant ROCK II (1-602) (Homo sapiens, UniProt O75116); test: Rho-kinase assay (phosphate incorporation, [γ-32P]ATP, RSK peptide); assay type: biochemical; settings: 10 nM ROCK II, 10 μM ATP, 30° C., 10 minutes
T1 construct: made in house; host or cells: Sf9 insect cells
T1 sequence (O75116 1-602): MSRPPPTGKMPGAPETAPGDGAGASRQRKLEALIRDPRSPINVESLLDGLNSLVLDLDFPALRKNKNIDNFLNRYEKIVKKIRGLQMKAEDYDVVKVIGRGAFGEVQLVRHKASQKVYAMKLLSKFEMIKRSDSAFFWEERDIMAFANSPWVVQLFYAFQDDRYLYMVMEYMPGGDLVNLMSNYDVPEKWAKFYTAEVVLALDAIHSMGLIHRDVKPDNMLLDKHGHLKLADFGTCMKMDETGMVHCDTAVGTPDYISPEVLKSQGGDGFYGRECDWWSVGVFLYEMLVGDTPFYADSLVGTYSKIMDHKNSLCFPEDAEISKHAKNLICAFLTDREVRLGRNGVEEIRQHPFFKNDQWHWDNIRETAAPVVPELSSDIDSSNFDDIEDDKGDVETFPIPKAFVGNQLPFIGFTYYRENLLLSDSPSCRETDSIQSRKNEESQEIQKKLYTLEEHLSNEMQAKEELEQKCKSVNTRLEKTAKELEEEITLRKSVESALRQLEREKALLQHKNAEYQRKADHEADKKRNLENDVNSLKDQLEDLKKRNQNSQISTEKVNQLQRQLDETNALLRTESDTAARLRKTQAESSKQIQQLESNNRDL
Experimental: Rho-kinase assays were performed using the compounds in various concentrations and the 50% inhibitory concentrations (hereinafter referred to as the “IC50 value”) of the compounds for Rho-kinase were calculated. In the Rho-kinase assay, phosphorylation reaction was performed using an activated form of recombinant ROCK II (1-602) obtained by expressing human ROCK II cDNA in Sf9 cells […], and the phosphate incorporation activity was defined as the Rho-kinase activity. Namely, the compounds were each added to a reaction solution containing 50 mM Tris-HCL (ph 7.4), […], 2 mM EDTA, 2 mM EGTA, 0.1% tween 20, 50 μM RSK peptide, 10 μM [γ-^32P]ATP, and 10 nM ROCK II, and the reaction was allowed to proceed at 30° C. for 10 minutes. The reaction mixture was spotted on phosphocellulose paper, and the reaction was stopped by dipping the phosphocellulose paper into a phosphoric acid solution. The phosphocellulose paper was washed with the phosphoric acid solution, and then radioactivity was measured with a liquid scintillation counter.
An Rho-kinase assay was performed, and the 50% inhibitory concentration (hereinafter referred to as the “IC50 value”) was calculated. The IC50 value of the reference compound (S)-hexahydro-1-(4-fluoroisoquinoline-5-sulfonyl)-4-glycyl-2-methyl-1H-1,4-diazepine dihydrochloride for Rho-kinase is shown in Table 2.

[2] = test system: intraocular pressure in rabbits; test: Intraocular pressure measurement after instillation of eye drops in rabbits; assay type: in vivo, rabbit (NZW, male); settings: for time after instillation of maximum intraocular-pressure-reducing effect: 1% eye drops in phosphate buffer pH 7.0, 0.05 ml into right eye; for time after instillation of maximum intraocular-pressure-reducing effect / period of intraocular-pressure-reducing effect longer than that for the compound M / inhibition in vivo at 1 % / intraocular-pressure-reducing effect relative to that of the compound M: rabbit; for period of intraocular-pressure-reducing effect longer than that for the compound M / inhibition in vivo at 1 %: 1% eye drops; for inhibition in vivo at 1 %: Oryctolagus cuniculus, topical, 2 h, 120 minutes after instillation, read-out: maximum intraocular-pressure-reducing effect, intraocular pressure lower than that of the control eye; for intraocular-pressure-reducing effect relative to that of the compound M: after 120 minutes from the instillation
Experimental: Eye drops were prepared by dissolving each compound (1.0 g) in a phosphate buffer solution which was prepared by dissolving 0.8 g of sodium dihydrogen phosphate and 0.5 g of sodium chloride in purified water such that the final weight was 100 g. The pH was adjusted to 7.0 with sodium hydroxide.
As a control, a phosphate buffer solution (pH 7.0) in which 1.0 g of the compound M was not dissolved was used.
Each rabbit (NZW, male, 2.5 to 3.0 kg) was secured in a holder. One of the preparations (0.05 ml) was instilled into the right eye, and the phosphate buffer as control (0.05 ml) was instilled into the left eye. The intraocular pressures were measured serially using a TonoLab handheld mobile tonometer manufactured by Tiolat. The ratios to the control values were calculated and plotted with time (refer to figures).
Eye drops were prepared by dissolving the compound (S)-hexahydro-1-(4-fluoroisoquinoline-5-sulfonyl)-4-glycyl-2-methyl-1H-1,4-diazepine dihydrochloride (1.0 g) in 1.0 g of dimethyl sulfoxide and adding the resulting solution to a boric acid solution prepared by dissolving 2.0 g of boric acid in purified water such that the final weight was 100 g. The pH was adjusted to 7.0 with sodium hydroxide.
The eye drops were administered to a rabbit as in Example 1, and the intraocular pressures were measured.

[3] = test system: intraocular pressure in rabbits; settings: literature reports; cited from earlier work

Row | SMILES | IC50 [1] [µM] | time after instillation of maximum intraocular-pressure-reducing effect [2] [min] | period of intraocular-pressure-reducing effect longer than that for the compound M [2] | inhibition in vivo at 1 % [2] [%] | intraocular-pressure-reducing effect relative to that of the compound M [2] | effect on intraocular pressure in rabbits (reported) [3] | intraocular-pressure-reducing effect ([2]; 1% eye drops in dimethyl sulfoxide / boric acid solution pH 7.0, rabbit)
1 | C[C@H]1CNCCN1S(=O)(=O)c1cccc2cncc(Br)c12 [Compound B6, 2-(S)-1-(4-bromoisoquinoline-5-sulfonyl)-2-methylpiperazine dihydrochloride] | 0.634 | 120 | about 2 hours | 26 | substantially the same as that of the compound M |  | 
2 | C[C@H]1CNCCCN1S(=O)(=O)c1cccc2cncc(Br)c12 [Compound B7, (S)-hexahydro-1-(4-bromoisoquinoline-5-sulfonyl)-2-methyl-1H-1,4-diazepine dihydrochloride] | 0.0284 | 120 | about 5 hours | 56 | 2.0 times |  | 
3 | C[C@H]1CNCCCCN1S(=O)(=O)c1cccc2cncc(Br)c12 [Compound B8, (S)-octahydro-1-(4-bromoisoquinoline-5-sulfonyl)-2-methyl-1,4-diazocine dihydrochloride] | 0.0485 | 120 | about 1 hours | 47 | 1.7 times |  | 
4 | C[C@H]1CNCCCN1S(=O)(=O)c1cccc2cncc(Cl)c12 [Compound C7, (S)-hexahydro-1-(4-chloroisoquinoline-5-sulfonyl)-2-methyl-1H-1,4-diazepine dihydrochloride] | 0.0258 | 120 | about 3 hours | 54 | 1.9 times |  | 
5 | C[C@H]1CNCCCCN1S(=O)(=O)c1cccc2cncc(Cl)c12 [Compound C8, (S)-octahydro-1-(4-chloroisoquinoline-5-sulfonyl)-2-methyl-1,4-diazocine dihydrochloride] | 0.0211 | 120 | substantially the same as that for the compound M | 35 | 1.3 times |  | 
6 | C[C@H]1CNCCCN1S(=O)(=O)c1cccc2cncc(F)c12 [Compound F7, (S)-hexahydro-1-(4-fluoroisoquinoline-5-sulfonyl)-2-methyl-1H-1,4-diazepine dihydrochloride] | 0.085 | 120 | about 3 hours | 45 | 1.9 times |  | 
7 | C[C@H]1CNCCCCN1S(=O)(=O)c1cccc2cncc(F)c12 [Compound F8, (S)-octahydro-1-(4-fluoroisoquinoline-5-sulfonyl)-2-methyl-1,4-diazocine dihydrochloride] | 0.0391 | 120 | about 1 hours | 45 | 1.6 times |  | 
8 | C[C@@H](N)[C@H]1CC[C@H](C(=O)Nc2ccncc2)CC1 [Compound Y-27632] |  |  |  |  |  | reduce intraocular pressure in rabbits | 
9 | O=S(=O)(c1cccc2cnccc12)N1CCCNCC1 [HA-1077] |  |  |  |  |  | reduce intraocular pressure in rabbits | 
10 | C#Cc1cncc2cccc(S(=O)(=O)N3CCCNC[C@@H]3C)c12.Cl.Cl [M, (S)-hexahydro-1-(4-ethynylisoquinoline-5-sulfonyl)-2-methyl-1 H-1,4-diazepine dihydrochloride, reference compound] | 0.0195 | 120 |  | 28 |  |  | 
11 | C[C@H]1CN(C(=O)CN)CCCN1S(=O)(=O)c1cccc2cncc(F)c12.Cl.Cl [Reference Compound, (S)-hexahydro-1-(4-fluoroisoquinoline-5-sulfonyl)-4-glycyl-2-methyl-1H-1,4-diazepine dihydrochloride, reference compound] | 0.054 |  |  |  |  |  | a statistically significant intraocular-pressure-reducing effect was not observed
